From patent publication US20060100168A1, “Method of treating cancer using adenosine and its analogs” (The Trustee of Boston University, priority 2002, published 2006)
“Also recorded” adds a separate entry of the source.

Experiments:
[1] = test system: estrogen receptor α (ERα); test: ERα protein level by Western blot in MCF-7 cells; type: cell-based, human; conditions: for ERα Level: 12 hours, 100 μM, except adenosine (500 μM), Western blot quantitated, vehicle control set to 1, average of two experiments; for ERα protein level, in words: Western blot
Experimental: Western Blot Analysis: Cells were washed three times in cold 1×PBS, and collected by scraping on ice. Western blot analysis was performed as we described before with the chemiluminescence method (41). […] Cyclin A, cyclin B1 and p27 antibodies were used at 1:500 dilutions. Cyclin E antibody was used at 1:1000 dilutions.

MCF-7 cells [2] = test: Anchorage-independent growth (soft agar) assay; type: cell-based, human; conditions: for Effect on anchorage-independent growth (colony formation), in words: different concentrations
Experimental: Anchorage-independent growth (soft agar) assay: Soft agar assay was performed as described (40) with the following modifications. Ligands were added into the bottom and top agar before plating into 6-well plates. Cells were treated with trypsin (Invitrogen, Carlsbad, Calif.) for 5 minutes in a 37° C. incubator and pipetted several times so that most cells were in single cell forms. Cells were counted with a hemacytometer (Hausser Scientific/VWR, So. Plainfield, N.J.), and 10,000 cells were mixed with top agar and plated into each well. After the top agar had solidified, two ml of medium containing the same treatment was added on top of the agar. This covering medium was changed every two days during culture. After two weeks of culture, each well was counted for the number of colonies formed on an Olympus IX70 microscope under 40× optical amplification. A cell colony was defined as any cluster of cells that contain more than 3 cells. The average of counts from 3 random optical fields for each well was taken as the colony number and analyzed. Each treatment was performed in triplicates. The averages and standard deviations shown in the figures were calculated based on triplicate experiments.

MCF-7 cells [3] = test: Apoptosis by propidium iodide staining and flow cytometry (sub-diploid events); type: cell-based, human; conditions: 100 μM; for Apoptosis: 2 days of treatment, except adenosine (500 μM) and inosine (1 mM), number of apoptotic cells compared to vehicle control (set to 1), average ± SD; for Apoptosis, in words: two days
Experimental: (§1) Flow Cytometry and Apoptosis Analysis: Cells were detached from tissue culture plates by trypsin treatment. Cells were collected by centrifugation at 1200 g for 5 minutes and washed once with PBS. Staining of cells with propidium iodide and analysis on a flow cytometer (FACScan, Becton Dickinson, Research Triangle Park, N.C.) was performed as described before (42). Data were analyzed with CellQuest software (Becton Dickinson, Research Triangle Park, N.C.). The percentage of cells appearing with a ploidy level smaller than a diploid content was calculated as an estimate of cells undergoing apoptosis.

MCF-7 cells [4] = test: Cell cycle analysis by flow cytometry; type: cell-based, human; conditions: 100 μM, except adenosine (500 μM) and inosine (1 mM); for Percentage change of diploid (G0 or G1 phase) population compared to vehicle-treated cells: first number in parentheses; for Percentage change of S phase population compared to vehicle-treated cells: second number in parentheses; for Percentage change of tetraploid (G2 or M phase) population compared to vehicle-treated cells: third number in parentheses
Experimental: as §1

MCF-7 cells [5] = test: Anchorage-dependent growth assay (viable cell count, Trypan Blue); type: cell-based, human; conditions: for Cell Growth / Effect on MCF-7 cell growth, in words: MCF-7; for Cell Growth: 2 days of treatment, compounds at 100 μM, except adenosine (500 μM) and inosine (1 mM), normalized to vehicle control (set to 1), negative = decrease vs count before treatment, average ± SD, three experiments; for Effect on MCF-7 cell growth, in words: summary of Table 1 and discussion
Experimental: Anchorage-dependent growth assay: Cells were plated into 6-well plates and grown overnight before treatments. The seeding concentration of MCF-7 cells was 2×10^5/well, which was determined during preliminary experiments as not allowing the cells to reach confluency within 3 days. Cells were treated either with vehicle or ligands, as indicated. Cells were detached by incubation with trypsin (Invitrogen, Carlsbad, Calif.) and counted with a hemacytometer before or after treatment.

MCF-7 cells [6] = test: Thymidine incorporation assay; type: cell-based, human; conditions: treated 24 hours before thymidine
Experimental: (§2) Thymidine Incorporation Assay. Thymidine incorporation assays were performed as described (Zhang, Y., Wang, Z., and Ravid, K. The cell cycle in polyploid megakaryocytes is associated with reduced activity of cyclin B1-dependent cdc2 kinase. J Biol Chem, 271: 4266-4272, 1996) with modifications. Rat bone marrow cells were cultured in 25 cm^2 flasks at a concentration of 20×10^6 cells per 2 ml. After drug treatment for 24 hours, cells were incubated with ^3H-thymidine at a final concentration of 3 μCi/ml for 8 hours. For MCF-7 cells, cells were cultured in 6-well plates and incubated with ^3H-thymidine for 2 hours after drug treatment. Cells were divided into two portions, sixty percent of which were processed as described (Id.) to obtain tritium counts. The rest of the cells were lysed with Western blotting lysis buffer and protein concentrations were determined by Bio-Rad protein assay reagent (Bio-Rad, Hercules, Calif.). Tritium counts were normalized with corresponding protein concentrations to account for cell number variations.

[7] = test system: primary rat bone marrow cells; test: Thymidine incorporation assay; type: cell-based; conditions: 24 hours, IB-MECA at 100 μM
Experimental: as §2

Row | Compound | ERα Level [1] | inhibition at 1000 µM (MCF-7 cells [2]; Homo sapiens, MCF7, 336 h, MCF-7 soft agar, 1 mM, two weeks, read-out: Inhibition of colony-forming ability) | Effect on anchorage-independent growth (colony formation), in words (MCF-7 cells [2]; MCF-7 soft agar, two weeks) | Apoptosis (MCF-7 cells [3]) | Percentage change of diploid (G0 or G1 phase) population compared to vehicle-treated cells (MCF-7 cells [4]) | Percentage change of S phase population compared to vehicle-treated cells (MCF-7 cells [4]) | Percentage change of tetraploid (G2 or M phase) population compared to vehicle-treated cells (MCF-7 cells [4]) | Cell Growth (MCF-7 cells [5]) | ERα protein level, in words [1] | Apoptosis, in words (MCF-7 cells [3]) | Effect on MCF-7 cell growth, in words (MCF-7 cells [5]) | Thymidine incorporation decreased to (MCF-7 cells [6]) | Effect on MCF-7 cell growth, in words (MCF-7 cells [5]; listed as 2-chloror-deoxyadenosine) | Thymidine incorporation reduced to [7] | Effect of A3AR antagonist on IB-MECA inhibitory effect on growth (MCF-7 cells [2]; MCF-7, antagonist up to 1 μM, not shown) | Cell Cycle Arrest (position of arrest) (MCF-7 cells [4]; flow cytometry) | Effect of nucleoside transporter inhibitor on growth inhibitory effect of IB-MECA (MCF-7 cells [5]; 10 μM) | Effect on cell growth by itself (MCF-7 cells [5]; at higher concentrations than 10 μM)
1 | Nc1ncnc2c1ncn2[C@@H]1O[C@H](CO)[C@@H](O)[C@H]1O [Adenosine] | 1.07 | ~50% | dose-dependent inhibition of colony formation | 1.06 ± 0.17 | −25% | −56% | 97% | 0.49 ± 0.04 | – | – | – | – | – | – | – | – | – | –
2 | Nc1nc(Cl)nc2c1ncn2[C@@H]1O[C@H](CO)[C@@H](O)[C@H]1O [CADO, 2-chloro-adenosine] | 0.41 | – | – | 0.84 ± 0.6 | −11% | 11% | 20% | −0.02 ± 0.02 | significantly inhibited cell growth and ERα levels | without inducing apoptosis | significantly inhibited cell growth | – | – | – | – | – | – | –
3 | OC[C@H]1O[C@@H](n2cnc3c(NC4CCCC4)nc(Cl)nc32)[C@H](O)[C@@H]1O [CCPA, 2-Chloro-N^6-cyclopentyladenosine] | 1.16 | – | did not inhibit | 0.49 ± 0.12 | 3% | −18% | 11% | 0.79 ± 0.16 | – | – | no significant effect on cell growth; also recorded: did not have a significant effect | – | – | – | – | – | – | –
4 | CCNC(=O)[C@H]1O[C@@H](n2cnc3c(N)nc(NCCc4ccc(CCC(=O)O)cc4)nc32)[C@H](O)[C@@H]1O [CGS21680, 2-p-(2-Carboxyethyl)phenethylamino-5′-N-ethylcarboxamidoadenosine] | – | – | did not inhibit | – | – | – | – | – | – | – | did not have a significant effect | – | – | – | – | – | – | –
5 | Nc1nc(Cl)nc2c1ncn2[C@H]1C[C@H](O)[C@@H](CO)O1 [CdA, 2-chloro-2′-deoxyadenosine] | – | – | – | 1.80 ± 0.17 | −69% | 165% | 20% | 0.13 ± 0.01 | – | induced cellular apoptosis | – | 43% | significantly inhibited; also recorded: as effective at 1 μM (not shown) as at 100 μM | 32% | – | – | – | –
6 | Nc1ncnc2c1ncn2[C@@H]1O[C@H](CO)C[C@H]1O [Cordycepin, 3′-deoxyadenosine] | 0.58 | – | – | 0.43 ± 0.07 | −26% | 10% | 62% | 0.24 ± 6 | significantly inhibited cell growth and ERα levels | without inducing apoptosis | significantly inhibited cell growth | – | – | – | – | – | – | –
7 | OC[C@H]1O[C@@H](n2cnc3c(O)ncnc32)[C@H](O)[C@@H]1O [Inosine] | – | – | No effect | 1.02 ± 0.14 | −24% | 43% | 8% | 0.90 ± 0.12 | – | – | no significant effect on cell growth | – | – | – | – | – | – | –
8 | CCOC(=O)C1=C(C)NC(c2ccccc2)=C(C(=O)OCc2ccccc2)C1C#Cc1ccccc1 (centres unmarked) [MRS1191] | – | – | – | – | – | – | – | – | – | – | – | – | – | – | did not abolish | – | – | –
9 | CCNC(=O)[C@H]1O[C@@H](n2cnc3c(N)ncnc32)[C@H](O)[C@@H]1O [NECA, 5′-(N-Ethylcarboxamido)adenosine] | 0.92 | – | did not inhibit | 0.99 ± 0.05 | 0% | 3% | −3% | 0.90 ± 0.16 | no significant change | – | no significant effect on cell growth; also recorded: did not have a significant effect | – | – | – | – | Not Detectable | – | –
10 | OCCN(CCO)c1nc(N2CCCCC2)c2nc(N(CCO)CCO)nc(N3CCCCC3)c2n1 [dipyridamole] | – | – | – | – | – | – | – | – | – | – | – | – | – | – | – | – | did not prevent the growth inhibitory effect of IB-MECA | inhibitory effect on cell growth
